# Entries after “also recorded” stand apart in the source; their conditions may differ.
# Legend:
# [1] = system: β-galactosidase-specific antibodies; assay: Serum β-gal-specific IgG (ELISA) after intranasal immunization with β-gal plus adjuvant; format: in vivo, BALB/c (H-2d) mice
# Procedure: FIG. 3: Humoral responses which are stimulated after inoculating with MALP-2 derivatives and BPP-Cys-PEG, as mucosal adjuvants, at a dose of 0.05 μg per animal per immunization. The mice were immunized intranasally, on days 0, 7 and 14, with β-galactosidase (50 μg/dose) mixed with the above derivatives. On day 31 after the first immunization, serum samples were withdrawn and the concentrations of the β-galactosidase-specific antibodies were determined by means of ELISA. The results are depicted as end point titers.
# (§1) 6-8-week-old female BALB/c (H-2d) mice (Harlan Winkelmann GmbH, Borchen, Germany) were used for the experiments. Groups of in each case 5 mice were administered 50 μg of β-galactosidase (β-gal) (Boehringer, Mannheim, Germany), either on its own or together with 0.5 μg of synthetic R-MALP-2, S-MALP-2 or BPP-Cys-PEG, as adjuvant, by the nasal route (25 μl) on days 1, 14 and 21. Serum samples were withdrawn on day 31 and stored at −20° C. until the β-gal-specific antibodies were determined. Nunc-Immuno MaxiSorp test plates containing 96 wells (Nunc, Roskilde, Denmark) were coated with 100 μl of β-gal (Boehringer, Mannheim, Germany), containing 5 μg/ml in 0.05 mol carbonate buffer (pH 8.2), per well. Serial double dilutions of the sera or washings in PBS containing 1% BSA and 0.05% Tween 20 were added (100 μl/well) and the plates were incubated at 37° C. for 2 hours. […]
# [2] = system: mouse peritoneal macrophages; assay: Nitrogen monoxide release assay (macrophage activation test); format: cell-based, C3H/HeJ mice; settings: FIG. 1
# Excerpt: In principle, the activation of macrophages and monocytes can be measured by a large number of parameters, for example by means of the release of cytokines, chemokines or arachidonic acid metabolites in cultures of human monocytes or murine peritoneal macrophages. The test which is used here is based on the simultaneous stimulation of mouse peritoneal macrophages with interferon-γ and macrophage activator, e.g. BAP-Cys-PEG, so as to release nitrogen monoxide. (Reference: Muhlradt, P. F., and Frisch, M., 1994, “Purification and partial biochemical characterization of a Mycoplasma fermentans-derived substance that activates macrophages to release nitric oxide, tumor necrosis factor, and interleukin-6”, Infect. Immun. 62:3801-3807).
# In brief, peritoneal macrophages from C3H/HeJ mice were used as the macrophage source. They were cultured in 96-well microtiter plates and stimulated simultaneously with rIFN-γ and a serial dilution of macrophage activator. Insofar as necessary, the macrophage activators were dissolved in 25 mM octylglucoside in the first dilution step and then diluted further with medium. After an incubating time of 45-48 hours, the nitrate was reduced with nitrate reductase and the starting substance nitrogen monoxide was determined, as the sum of nitrate and nitrite, using Griess' reagent. […]
# β-gal-specific IgA = β-gal-specific IgA in lung and vaginal washings of intranasally immunized mice; format: in vivo, BALB/c (H-2d) mice; settings: intranasal immunization with β-gal plus adjuvant
# Procedure: as §1
# Vaginal and lung washings were obtained by rinsing the organs with […] PBS which contained 50 mM EDTA, 0.1% BSA and 10 mM PMSF. […] In order to investigate the capacity of R-MALP-2, S-MALP-2 and BPP-Cys-PEG for stimulating effective humoral immune responses, the serum titers of β-gal-specific antibodies were determined in the inoculated mice.
# spleen cells = assay: β-gal-specific T cell proliferation of spleen cells from immunized mice ([3H]-thymidine uptake); format: in vivo, BALB/c (H-2d) mice; settings: spleen cells re-stimulated in vitro for 4 days with soluble β-gal; FIG. 6
# Excerpt: FIG. 6: β-gal-specific T cell proliferation responses of spleen cells from immunized mice. The cells were re-stimulated in vitro over 4 days with different concentrations of soluble β-gal. The results are depicted as ratios between the values (means of triple determinations) from stimulated and unstimulated samples (stimulation index).
# The spleens were removed and taken together for analyzing the cell immune responses. The cells were propagated in RPMI 1640, additionally containing 10% calf serum, 100 U of penicillin/ml, 15 μg of streptomycin/ml, 5×10^−5 M 2-mercaptoethanol and 1 mM L-glutamine (GIBCO BRL, Karlsruhe, Germany), and stored at 37° C. in a moist atmosphere containing 5% CO2. […] These cells were then harvested on filter paper (Filtermat A; Wallac, Freiburg, Germany) using a cell harvester (Inotech, Wohlen, Switzerland) and the quantity of [^3H] thymidine taken up into the DNA of proliferating cells was determined using a scintillation counter (Wallac 1450, Micro-Trilux). The results were recorded as the ratios between the values (mean values, determined in triplicate) of stimulated and unstimulated samples (stimulation index).
# [3] = system: diabetic mice (C57BKLS/Bom-db); assay: Wound healing in diabetic mice; format: in vivo; settings: 3×200 kU per animal on days 0, 2 and 5, in methylcellulose and 5% mouse serum; versus carrier control; FIG. 2
# Excerpt: As in the case of diabetic patients, wound healing is also disturbed in diabetic mice and proceeds more slowly than in wild-type mice. The diabetic mouse is therefore an established animal model for wound healing.
# An area of approx. 4×4 cm in size was shaved on the backs of 20 diabetic mice ([…] C57BKLS/Bom-db) and this area was depilated with Veet two days later, after which the cream was carefully removed. After a further two days, the depilated backs of the mice were disinfected with Braunol. After anaesthesia had been initiated with isoflurane/air, an additional local anaesthesia was performed by means of the i.c. injection of 2% xylocaine directly into the site envisaged for the excision, and the skin was defatted with trichloroethylene. After that, scissors were used to cut out a circular skin wound of 1.3 cm in diameter in each of the mice. The wounds were closed with a transparent plaster (Hydrofilm, F. Hartmann) and dressing adhesive. An additional, larger plaster, having an aperture corresponding to the wound, making possible continued observation of the wound, was adhered on top of the first plaster.
# 3×200 kUnits of BPP-Cys-PEG, in methylcellulose and 5% mouse serum (as carrier), were administered, per animal, through the transparent plaster on days 0, 2 and 5.
# Control mice were only given the carrier mixture. […]
substance,measurement,setting,value
bispalmitoyloxy-propylcysteine-PEG [BPP-Cys-PEG],antigen-specific (β-gal) serum IgG titers,"[1]; intranasal, 50 μg β-gal with 0.5 μg adjuvant, serum on day 31, FIG. 3",rise more rapidly than those obtained using R-MALP-2
same,effectiveness as a mucosal adjuvant compared with R-MALP-2 (overall conclusion),"[1]; summary of humoral and cellular responses, systemic and mucosal","at least as effective as, or even more effective than, R-MALP-2"
same,"concentration achieving the same degree of macrophage activation, relative to TPP-Cys-PEG",[2]; comparison with TPP-Cys-PEG (PAM3-Cys-PEG),approx. forty times lower
same,"potential for activating macrophages (nitrogen monoxide production), compared with PAM3-Cys-PEG","[2]; peritoneal macrophages co-stimulated with rIFN-γ, 45-48 hours",markedly higher potential for activating macrophages
same,β-gal-specific IgA in lung washings,β-gal-specific IgA; FIG. 4,significant increase in antigen-specific IgA antibodies
same,β-gal-specific IgA in vaginal washings,β-gal-specific IgA; FIG. 5,significant concentrations of β-gal-specific IgA
same,β-gal-specific T cell proliferation response (stimulation index),spleen cells,effective proliferation response; also recorded: strongest T cell proliferation response
same,wound healing,[3],accelerated the wound healing significantly

# Reference: patent US7316996B2, “Bisacyloxypropylcysteine conjugates and the use thereof” (GBF Gesellschaft fur Biotechnologische Forschung mbH, priority 2002, dated 2008)
